The values that follow come from patent US20200069691A1, “HETEROCYCLIC COMPOUNDS AS HIV PROTEASE INHIBITORS” (Merck Sharp & Dohme Corp., priority 2016, published 2020).

The assay concerns the target T1, wild-type HIV-1 protease (Human immunodeficiency virus type 1 group M subtype B, UniProt P04585).
T1 construct: Escherichia coli expressed wild-type HIV-1 protease protein
As to the kind of experiment: Assay for Inhibition of Microbial Expressed HIV Protease (peptide substrate cleavage, LC-MS/MS readout). Format: biochemical. The conditions noted are these: E. coli expressed wild-type HIV-1 protease, mean of at least two independent experiments, read-out: HIV Pr Enzyme HIV1 PR IC50. The method, boiled down: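 E. coli-expressed wild-type HIV-1 protease ([…]) was preincubated with inhibitor 30 min at room temperature in pH 5.5 acetate buffer (100 mM NaCl, 0.1% BSA). Then 400 μM octapeptide substrate was added and reacted 1 h at 30 °C; inhibition came from LC-MS/MS product peak areas, mean of ≥2 experiments.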

Regarding `COC(=O)Nc1ncc2c(n1)CN(C(=O)c1cccc(CN3C(=N)N[C@](CCC(C)C)(c4ccccc4)C3=O)c1)C2` [Compound 183, methyl {6-[(3-{[(4R)-2-imino-4-(3-methylbutyl)-5-oxo-4-phenylimidazolidin-1-yl]methyl}phenyl)carbonyl]-6,7-dihydro-5H-pyrrolo[3,4-d]pyrimidin-2-yl}carbamate], the IC50 (commonly the concentration that gives 50% inhibition) was determined as 2.26 nM.
With `N=C1NC(c2ccccc2)(c2ccccc2)C(=O)N1Cc1cccc(C(=O)N2Cc3[nH]nc(C(F)(F)F)c3C2)c1` [Compound 184, 2-imino-5,5-diphenyl-3-(3-{[3-(trifluoromethyl)-4,6-dihydropyrrolo[3,4-c]pyrazol-5(1H)-yl]carbonyl}benzyl) imidazolidin-4-one], the IC50 came out at 2.74 nM.
For `C[C@H](c1cccc(C(=O)N2Cc3nccnc3C2)c1)N1C(=N)NC(c2ccccc2)(c2ccccc2)C1=O` [Compound 185, 3-{(1R)-1-[3-(5,7-dihydro-6H-pyrrolo[3,4-b]pyrazin-6-ylcarbonyl)phenyl]ethyl}-2-imino-5,5-diphenylimidazolidin-4-one], the IC50 is 40.5 nM.
As for `C[C@H](c1cccc(C(=O)N2Cc3nccnc3C2)c1)N1C(=N)NC(c2ccc(F)cc2)(c2ccc(F)cc2)C1=O` [Compound 186, 3-{(1R)-1-[3-(5,7-dihydro-6H-pyrrolo[3,4-b]pyrazin-6-ylcarbonyl)phenyl]ethyl}-5,5-bis(4-fluorophenyl)-2-iminoimidazolidin-4-one], the IC50 amounted to 3.24 nM.
On to `C[C@H](c1cccc(C(=O)N2Cc3ccccc3C2)c1)N1C(=N)NC(c2ccccc2)(c2ccccc2)C1=O` [Compound 187, 3-{(1R)-1-[3-(1,3-dihydro-2H-isoindol-2-ylcarbonyl)phenyl]ethyl}-2-imino-5,5-diphenylimidazolidin-4-one], for which the IC50 is 3.67 nM.
In the case of `COC(=O)Nc1ncc2c(n1)CN(C(=O)c1cccc(CN3C(=N)NC(CC(C)C)(c4ccccc4)C3=O)c1)C2` (stereo not drawn) [Compound 188, methyl {6-[(3-{[2-imino-4-(2-methylpropyl)-5-oxo-4-phenylimidazolidin-1-yl]methyl}phenyl)carbonyl]-6,7-dihydro-5H-pyrrolo[3,4-d]pyrimidin-2-yl}carbamate], the IC50 amounted to 3.78 nM.
For `COC(=O)Nc1ncc2c(n1)CN(C(=O)c1cccc(CN3C(=N)NC(c4ccc(F)cc4)(c4ccc(F)cc4)C3=O)c1)C2` [Compound 189, methyl {6-[(3-{[4,4-bis(4-fluorophenyl)-2-imino-5-oxoimidazolidin-1-yl]methyl}phenyl)carbonyl]-6,7-dihydro-5H-pyrrolo[3,4-d]pyrimidin-2-yl}carbamate] the value was 3.83 nM; for `COC(=O)Nc1ncc2c(n1)CN(C(=O)c1cccc(CN3C(=N)NC(c4ccccc4)(c4ccccc4)C3=O)c1)C2` [Compound 190, methyl [6-({3-[(2-imino-5-oxo-4,4-diphenylimidazolidin-1-yl)methyl]phenyl}carbonyl)-6,7-dihydro-5H-pyrrolo[3,4-d]pyrimidin-2-yl]carbamate], 3.86 nM.
For the compound `CC(C)CCC1(c2ccccc2)NC(=N)N(Cc2cccc(C(=O)N3Cc4cnc(C#N)nc4C3)c2)C1=O` (stereo not drawn) [Compound 191, 6-[(3-{[2-imino-4-(3-methylbutyl)-5-oxo-4-phenylimidazolidin-1-yl]methyl}phenyl)carbonyl]-6,7-dihydro-5H-pyrrolo[3,4-d]pyrimidine-2-carbonitrile], the IC50 is 4.17 nM.
As for `N=C1NC(c2ccccc2)(c2ccc(-c3ccccc3)cc2)C(=O)N1Cc1cccc(C(=O)N2Cc3nccnc3C2)c1` (stereo not drawn) [Compound 192, 5-biphenyl-4-yl-3-[3-(5,7-dihydro-6H-pyrrolo[3,4-b]pyrazin-6-ylcarbonyl)benzyl]-2-imino-5-phenylimidazolidin-4-one], the IC50 stood at 44.2 nM.
On to `CC(C)CCC1(c2ccccc2)NC(=N)N(Cc2cccc(C(=O)N3Cc4nccnc4C3)c2)C1=O` (stereo not drawn) [Compound 193, 3-[3-(5,7-dihydro-6H-pyrrolo[3,4-b]pyrazin-6-ylcarbonyl)benzyl]-2-imino-5-(3-methylbutyl)-5-phenylimidazolidin-4-one], for which the IC50 came to 4.89 nM.
Regarding `N=C1NC(c2ccccc2)(c2ccccc2)C(=O)N1Cc1cccc(C(=O)N2Cc3cccc(F)c3C2)c1` [Compound 194, 3-{3-[(4-fluoro-1,3-dihydro-2H-isoindol-2-yl)carbonyl]benzyl}-2-imino-5,5-diphenylimidazolidin-4-one], the IC50 came out at 35.7 nM.
As for `N=C1NC(c2ccc(F)cc2)(c2ccc(F)cc2)C(=O)N1Cc1cccc(C(=O)N2Cc3ccccc3C2)c1` [Compound 195, 3-[3-(1,3-dihydro-2H-isoindol-2-ylcarbonyl)benzyl]-5,5-bis(4-fluorophenyl)-2-iminoimidazolidin-4-one], the IC50 amounted to 56.9 nM.
Consider `N=C1NC(c2ccc(F)cc2)(c2ccc(F)cc2)C(=O)N1Cc1cccc(C(=O)N2Cc3cccc(F)c3C2)c1` [Compound 196, 3-{3-[(4-fluoro-1,3-dihydro-2H-isoindol-2-yl)carbonyl]benzyl}-5,5-bis (4-fluorophenyl)-2-iminoimidazolidin-4-one], for which the IC50 worked out at 31.6 nM.
For `N=C1NC(c2ccc(F)cc2)(c2ccc(F)cc2)C(=O)N1Cc1cccc(C(=O)N2Cc3cc(F)c(F)cc3C2)c1` [Compound 197, 3-{3-[(5,6-difluoro-l,3-dihydro-2H-isoindol-2-yl)carbonyl]benzyl}-5,5-bis(4-fluorophenyl)-2-iminoimidazolidin-4-one], the IC50 amounted to 5.25 nM.
The result for `C[C@H](c1cccc(C(=O)N2Cc3cncnc3C2)c1)N1C(=N)NC(c2ccc(F)cc2)(c2ccc(F)cc2)C1=O` [Compound 198, 3-{(1R)-1-[3-(5,7-dihydro-6H-pyrrolo[3,4-d]pyrimidin-6-ylcarbonyl)phenyl]ethyl}-5,5-bis(4-fluorophenyl)-2-iminoimidazolidin-4-one] reads 5.36 nM; that for `N#Cc1ncc2c(n1)CN(C(=O)c1cccc(CN3C(=N)NC(c4ccccc4)(c4ccccc4)C3=O)c1)C2` [Compound 199, 6-({3-[(2-imino-5-oxo-4,4-diphenylimidazolidin-1-yl)methyl]phenyl}carbonyl)-6,7-dihydro-5H-pyrrolo[3,4-d]pyrimidine-2-carbonitrile], 5.59 nM.
The result for `N=C1NC(c2ccc(F)cc2)(c2ccc(F)cc2)C(=O)N1Cc1cccc(C(=O)N2Cc3nccnc3C2)c1` [Compound 200, 3-[3-(5,7-dihydro-6H-pyrrolo[3,4-b]pyrazin-6-ylcarbonyl)benzyl]-5,5-bis(4-fluorophenyl)-2-iminoimidazolidin-4-one] reads 14.2 nM; that for `N=C1NC(c2ccccc2)(c2ccc(-c3ccc(F)cc3)cc2)C(=O)N1Cc1cccc(C(=O)N2Cc3nccnc3C2)c1` (stereo not drawn) [Compound 201, 3-[3-(5,7-dihydro-6H-pyrrolo[3,4-b]pyrazin-6-ylcarbonyl)benzyl]-5-(4′-fluorobiphenyl-4-yl)-2-imino-5-phenylimidazolidin-4-one], 6.32 nM.
For the compound `C[C@H](c1cccc(C(=O)N2Cc3cnn(C)c3C2)c1)N1C(=N)NC(c2ccc(F)cc2)(c2ccc(F)cc2)C1=O` [Compound 202, 5,5-bis(4-fluorophenyl)-2-imino-3-[(1R)-1-{3-[(1-methyl-4,6-dihydropyrrolo [3,4-c]pyrazol-5(1H)-yl)carbonyl]phenyl}-ethyl]imidazolidin-4-one], the IC50 is 6.54 nM.
`N=C1NC(c2ccccc2)(c2ccccc2)C(=O)N1Cc1cccc(C(=O)N2Cc3ccc(F)cc3C2)c1` [Compound 203, 3-{3-[(5-fluoro-1,3-dihydro-2H-isoindol-2-yl)carbonyl]benzyl}-2-imino-5,5-diphenylimidazolidin-4-one]: the IC50 worked out at 6.71 nM.
Regarding `CC(C)CCC1(c2ccccc2)NC(=N)N(Cc2cccc(C(=O)N3Cc4ccccc4C3)c2)C1=O` (stereo not drawn) [Compound 204, 3-[3-(1,3-dihydro-2H-isoindol-2-ylcarbonyl)benzyl]-2-imino-5-(3-methylbutyl)-5-phenylimidazolidin-4-one], the IC50 was 7.38 nM.
For `COc1ncc2c(n1)CN(C(=O)c1cccc(CN3C(=N)NC(c4ccc(F)cc4)(c4ccc(F)cc4)C3=O)c1)C2` [Compound 205, 5,5-bis(4-fluorophenyl)-2-imino-3-{3-[(2-methoxy-5,7-dihydro-6H-pyrrolo[3,4-d]pyrimidin-6-yl)carbonyl]benzyl} imidazolidin-4-one] the value was 7.67 nM; for `Cc1nc2c(s1)CN(C(=O)c1cccc(CN3C(=N)NC(c4ccccc4)(c4ccccc4)C3=O)c1)C2` [Compound 206, 5-({3-[(2-imino-5-oxo-4,4-diphenylimidazolidin-1-yl)methyl]phenyl}carbonyl)-2-methyl-3,4,5,6-tetrahydropyrrolo[3,4-d][1,3]thiazol-1-ium], 8.2 nM; for `CC(C)CC[C@]1(c2ccccc2)NC(=N)N(Cc2cc(F)cc(C(=O)N3Cc4nccnc4C3)c2)C1=O` [Compound 207, (5R)-3-[3-(5,7-dihydro-6H-pyrrolo[3,4-b]pyrazin-6-ylcarbonyl)-5-fluorobenzyl]-2-imino-5-(3-methylbutyl)-5-phenylimidazolidin-4-one], 8.35 nM.
Take `CC(C)CCC1(c2ccccc2)NC(=N)N(Cc2cccc(C(=O)N3Cc4nccnc4C3)c2)C1=O` (stereo not drawn) [Compound 208, 3-[3-(5,7-dihydro-6H-pyrrolo[3,4-b]pyrazin-6-ylcarbonyl)benzyl]-2-imino-5-(3-methylbutyl)-5-phenylimidazolidin-4-one]: the IC50 was determined as 35.2 nM.
With `CCOC(=O)c1nc2n(c1Cl)CCN(C(=O)c1cccc(CN3C(=N)NC(c4ccccc4)(c4ccccc4)C3=O)c1)C2` [Compound 209, ethyl 3-chloro-7-({3-[(2-imino-5-oxo-4,4-diphenylimidazolidin-1-yl)methyl]phenyl}carbonyl)-5,6,7,8-tetrahydroimidazo[1,2-a]pyrazine-2-carboxylate], the IC50 came out at 8.83 nM.
